Assays:
goosegrass (ELEIN) = assay: Test 11 field trial, preemergence; assay type: in vivo, Eleusine indica
Source text: (§1) Corn seeds (hybrid ‘Pioneer 3041’) were planted in mid spring season, 5 cm deep in a clay soil having 2.6% organic matter and a pH of 5.6. Plots were 8 m long by 1.5 m wide with rows spaced 80 cm apart. Seeds were spaced 15 cm apart within the rows. The field was managed using conventional tillage practices. […] Treatments consisted of Compound 2 or
(§2) Goosegrass was not evaluated 16 or 91 days after application.

[1] = system: Ipomoea grandiflora (IPOGF); assay: Test 11 field trial, preemergence; assay type: in vivo
Source text: as §1, §2

southern sandbur (CCHEC) = assay: Test 11 field trial, preemergence; assay type: in vivo, Cenchrus echinatus; design: scale not given here; conditions: atrazine 1500 or metolachlor 2500 g a.i./ha alone
Source text: as §1, §2

[2] = system: tropical spiderwort (COMBE); assay: Test 11 field trial, preemergence; assay type: in vivo, Commelina benghalensis; design: scale not given here; conditions: atrazine 1500 or metolachlor 2500 g a.i./ha alone
Source text: as §1, §2

[3] = system: Brazilian crabgrass (DIGHO); assay: Test 11 field trial, preemergence; assay type: in vivo, Digitaria horizontalis; design: scale not given here; conditions: atrazine 1500 or metolachlor 2500 g a.i./ha alone
Source text: as §1, §2

common blackjack (BIDPI) = assay: Test 11 field trial, preemergence; assay type: in vivo, Bidens pilosa; design: scale not given here; conditions: atrazine 1500 or metolachlor 2500 g a.i./ha alone
Source text: as §1, §2

arrowleaf sida (SIDRH) = assay: Test 11 field trial, preemergence; assay type: in vivo, Sida rhombifolia
Source text: as §1, §2

flint corn (ZEAMI) = assay: Test 11 field trial, preemergence; assay type: in vivo, Zea mays L. ssp. indurata; design: scale not given here; conditions: atrazine 1500 or metolachlor 2500 g a.i./ha alone
Source text: as §1, §2

Surinam grass (BRADC) = assay: Test 11 field trial, preemergence; assay type: in vivo, Brachiaria decumbens; design: scale not given here; conditions: atrazine 1500 or metolachlor 2500 g a.i./ha alone
Source text: as §1, §2

alexandergrass (BRAPL) = assay: Test 11 field trial, preemergence; assay type: in vivo, Brachiaria plantaginea; design: scale not given here; conditions: atrazine 1500 or metolachlor 2500 g a.i./ha alone
Source text: as §1, §2

velvetleaf (ABUTH) [4] = assay: Test 15 greenhouse, postemergence; conditions: 12 DAA
barley (HORVX) = assay: Test 30 growth chamber, postemergence; assay type: in vivo, Hordeum vulgare
Experimental: (§3) A growth chamber test was conducted to evaluate the effects on the plant species wheat (TRZAW, Triticum aestivum L.) and barley (HORVX, Hordeum vulgare L.) with mixtures of Compound 1 and Compound 2 with glycerol. Wheat and barley seeds were planted in a sandy loam soil having 0.9% organic matter and a pH of 6.3. […] Wheat and barley plants were treated postemergence at the two leaf growth stage for Compound 1 and at the three leaf growth stage for Compound 2. Each treatment was replicated one time. […] Plants were watered as needed. […] Colby's Equation was used to determine herbicidal effects expected from the mixtures.

wheat (TRZAW) = assay: Test 30 growth chamber, postemergence; assay type: in vivo, Triticum aestivum
Experimental: as §3

corn (ZEAMD) [5] = assay: Test 6 field trial, postemergence; assay type: in vivo, Zea mays ssp. indentata; conditions: 470 g a.i./ha
Source text: (§4) Corn seeds (hybrid ‘Pioneer 35Y62’) were planted in mid spring season, 3.8 cm deep in a silt loam soil having 4% organic matter and a pH of 5.8. Plots were 10.7 m long by 1.5 m wide with rows spaced 76 cm apart. Seeds were spaced 18 cm apart within the rows. The field was managed using conventional tillage practices. […] All treatments included a surfactant except glufosinate treatments, both alone and in combination. […] Results are summarized in Table 6 and are the means of the three replicates.

shepherd's purse (CAPBP) = assay: Test 5 field trial, postemergence; assay type: in vivo, Capsella bursa-pastoris; conditions: atrazine 1120, glufosinate 470 or glyphosate 1120 g a.i./ha alone
Source text: (§5) Corn seeds (hybrid ‘Pioneer 38H69’) were planted in mid spring season, 5.1 cm deep in a silty clay loam soil having 3% organic matter and a pH of 6.5. Plots were 9.1 m long by 3.0 m wide with rows spaced 76 cm apart. The field was managed using conventional tillage practices. […] All treatments included a surfactant except glufosinate treatments, both alone and in combination. […] Results are summarized in Table 5 and are the means of the three replicates.

[6] = system: common lambsquarters (CHEAL); assay: Test 6 field trial, postemergence; assay type: in vivo, Chenopodium album; conditions: 470 g a.i./ha
Source text: as §4

yellow foxtail (SETLU) [7] = assay: Test 5 field trial, postemergence; assay type: in vivo, Setaria glauca; conditions: atrazine 1120, glufosinate 470 or glyphosate 1120 g a.i./ha alone
Source text: as §5

giant foxtail (SETFA) [8] = assay: Test 5 field trial, postemergence; assay type: in vivo, Setaria faberi; conditions: atrazine 1120, glufosinate 470 or glyphosate 1120 g a.i./ha alone
Source text: as §5

velvetleaf (ABUTH) [9] = assay: Test 5 field trial, postemergence; assay type: in vivo, Abutilon theophrasti; conditions: atrazine 1120, glufosinate 470 or glyphosate 1120 g a.i./ha alone
Source text: as §5

velvetleaf (ABUTH) [10] = assay: Test 6 field trial, postemergence; assay type: in vivo, Abutilon theophrasti; conditions: 470 g a.i./ha
Source text: as §4

[11] = system: Pennsylvania smartweed (POLPY); assay: Test 6 field trial, postemergence; assay type: in vivo, Polygonum pensylvanicum; conditions: 470 g a.i./ha
Source text: as §4

giant foxtail (SETFA) [12] = assay: Test 6 field trial, postemergence; assay type: in vivo, Setaria faberi; conditions: 470 g a.i./ha
Source text: as §4

corn (ZEAMD) [13] = assay: Test 5 field trial, postemergence; assay type: in vivo, Zea mays ssp. indentata; conditions: atrazine 1120, glufosinate 470 or glyphosate 1120 g a.i./ha alone
Source text: as §5

[14] = system: common lambsquarters (CHEAL); assay: Test 5 field trial, postemergence; assay type: in vivo, Chenopodium album; conditions: atrazine 1120, glufosinate 470 or glyphosate 1120 g a.i./ha alone
Source text: as §5

yellow foxtail (SETLU) [15] = assay: Test 6 field trial, postemergence; assay type: in vivo, Setaria glauca; conditions: 470 g a.i./ha
Source text: as §4

common ragweed (AMBEL) = assay: Test 5 field trial, postemergence; assay type: in vivo, Ambrosia artemisiifolia; conditions: atrazine 1120, glufosinate 470 or glyphosate 1120 g a.i./ha alone
Source text: as §5

large crabgrass (DIGSA) = assay: Test 5 field trial, postemergence; assay type: in vivo, Digitaria sanguinalis; conditions: atrazine 1120, glufosinate 470 or glyphosate 1120 g a.i./ha alone
Source text: as §5

redroot pigweed (AMARE) = assay: Test 6 field trial, postemergence; assay type: in vivo, Amaranthus retroflexus; conditions: 470 g a.i./ha
Source text: as §4

field pennycress (THLAR) = assay: Test 5 field trial, postemergence; assay type: in vivo, Thlaspi arvense; conditions: atrazine 1120, glufosinate 470 or glyphosate 1120 g a.i./ha alone
Source text: as §5

[16] = 30 DAA, atrazine 1500 or metolachlor 2500 g a.i./ha alone
[17] = 44 DAA, 2500 g a.i./ha, scale 0 to 100
[18] = 62 DAA, 2500 g a.i./ha, scale 0 to 100
[19] = 16 DAA, atrazine 1500 or metolachlor 2500 g a.i./ha alone
[20] = 91 DAA, 2500 g a.i./ha, scale 0 to 100
[21] = 17 DAA, Glycerol 7100 g a.i./ha
[22] = 17 DAA, Glycerol 14200 g a.i./ha
[23] = 18 DAA, Glycerol 7100 g a.i./ha
[24] = 18 DAA, Glycerol 14200 g a.i./ha

CCc1cccc(C)c1N(C(=O)CCl)C(C)COC (stereo not shown) [Metolachlor]
ELEIN Obs (goosegrass (ELEIN); [16]): 100
ELEIN Obs (goosegrass (ELEIN); [17]): 100
ELEIN Obs (goosegrass (ELEIN); [18]): 100
IPOGF Obs [1, 19]: 70
IPOGF Obs [1, 16]: 60
IPOGF Obs [1, 17]: 40
IPOGF Obs [1, 18]: 40
IPOGF Obs [1, 20]: 40
CCHEC Obs (southern sandbur (CCHEC); 16 DAA): 95
CCHEC Obs (southern sandbur (CCHEC); 30 DAA): 97
CCHEC Obs (southern sandbur (CCHEC); 44 DAA): 97
CCHEC Obs (southern sandbur (CCHEC); 62 DAA): 80
CCHEC Obs (southern sandbur (CCHEC); 91 DAA): 100
COMBE Obs ([2]; 16 DAA): 100
COMBE Obs ([2]; 30 DAA): 100
COMBE Obs ([2]; 44 DAA): 100
COMBE Obs ([2]; 62 DAA): 100
COMBE Obs ([2]; 91 DAA): 100
DIGHO Obs ([3]; 16 DAA): 100
DIGHO Obs ([3]; 30 DAA): 100
DIGHO Obs ([3]; 44 DAA): 100
DIGHO Obs ([3]; 62 DAA): 100
DIGHO Obs ([3]; 91 DAA): 95
BIDPI Obs (common blackjack (BIDPI); 16 DAA): 40
BIDPI Obs (common blackjack (BIDPI); 30 DAA): 40
BIDPI Obs (common blackjack (BIDPI); 44 DAA): 40
BIDPI Obs (common blackjack (BIDPI); 62 DAA): 0
BIDPI Obs (common blackjack (BIDPI); 91 DAA): 0
SIDRH Obs (arrowleaf sida (SIDRH); [19]): 90
SIDRH Obs (arrowleaf sida (SIDRH); [16]): 80
SIDRH Obs (arrowleaf sida (SIDRH); [17]): 60
SIDRH Obs (arrowleaf sida (SIDRH); [18]): 70
SIDRH Obs (arrowleaf sida (SIDRH); [20]): 90
ZEAMI Obs (flint corn (ZEAMI); 16 DAA): 30
ZEAMI Obs (flint corn (ZEAMI); 30 DAA): 20
ZEAMI Obs (flint corn (ZEAMI); 44 DAA): 25
ZEAMI Obs (flint corn (ZEAMI); 62 DAA): 20
ZEAMI Obs (flint corn (ZEAMI); 91 DAA): 20
BRADC Obs (Surinam grass (BRADC); 16 DAA): 97
BRADC Obs (Surinam grass (BRADC); 30 DAA): 95
BRADC Obs (Surinam grass (BRADC); 44 DAA): 90
BRADC Obs (Surinam grass (BRADC); 62 DAA): 60
BRADC Obs (Surinam grass (BRADC); 91 DAA): 40
BRAPL Obs (alexandergrass (BRAPL); 16 DAA): 97
BRAPL Obs (alexandergrass (BRAPL); 30 DAA): 90
BRAPL Obs (alexandergrass (BRAPL); 44 DAA): 90
BRAPL Obs (alexandergrass (BRAPL); 62 DAA): 60
BRAPL Obs (alexandergrass (BRAPL); 91 DAA): 40

O=C1[C@H]2C[C@H](F)CN2C(=O)N1c1cc(NS(=O)(=O)CCl)c(Cl)cc1F [Profluazol]
Obs response, scale 0 to 100 (velvetleaf (ABUTH) [4]; 2 g a.i./ha): 91
Obs response, scale 0 to 100 (velvetleaf (ABUTH) [4]; 8 g a.i./ha): 100
Obs response, scale 0 to 100 (velvetleaf (ABUTH) [4]; 15 g a.i./ha): 100

OCC(O)CO [Glycerol]
HORVX Obs (barley (HORVX); [21]): 0%
HORVX Obs (barley (HORVX); [22]): 0%
HORVX Obs (barley (HORVX); [23]): 0%
HORVX Obs (barley (HORVX); [24]): 0%
TRZAW Obs (wheat (TRZAW); [21]): 0%
TRZAW Obs (wheat (TRZAW); [22]): 0%
TRZAW Obs (wheat (TRZAW); [23]): 0%
TRZAW Obs (wheat (TRZAW); [24]): 0%

CP(=O)(O)CCC(N)C(=O)O (stereo not shown) [Glufosinate]
ZEAMD Obs (corn (ZEAMD) [5]; 14 DAA): 0%
ZEAMD Obs (corn (ZEAMD) [5]; 28 DAA): 0%
CAPBP Obs (shepherd's purse (CAPBP); 16 DAA): 100%
CAPBP Obs (shepherd's purse (CAPBP); 31 DAA): 100%
CHEAL Obs ([6]; 14 DAA): 100%
CHEAL Obs ([6]; 28 DAA): 100%
SETLU Obs (yellow foxtail (SETLU) [7]; 16 DAA): 98%
SETLU Obs (yellow foxtail (SETLU) [7]; 31 DAA): 90%
SETFA Obs (giant foxtail (SETFA) [8]; 16 DAA): 100%
SETFA Obs (giant foxtail (SETFA) [8]; 31 DAA): 99%
ABUTH Obs (velvetleaf (ABUTH) [9]; 16 DAA): 33%
ABUTH Obs (velvetleaf (ABUTH) [9]; 31 DAA): 27%
ABUTH Obs (velvetleaf (ABUTH) [10]; 14 DAA): 0%
ABUTH Obs (velvetleaf (ABUTH) [10]; 28 DAA): 0%
POLPY Obs ([11]; 14 DAA): 98%
POLPY Obs ([11]; 28 DAA): 98%
SETFA Obs (giant foxtail (SETFA) [12]; 14 DAA): 99%
SETFA Obs (giant foxtail (SETFA) [12]; 28 DAA): 99%
ZEAMD Obs (corn (ZEAMD) [13]; 16 DAA): 0%
ZEAMD Obs (corn (ZEAMD) [13]; 31 DAA): 0%
CHEAL Obs ([14]; 16 DAA): 87%
CHEAL Obs ([14]; 31 DAA): 79%
SETLU Obs (yellow foxtail (SETLU) [15]; 14 DAA): 95%
SETLU Obs (yellow foxtail (SETLU) [15]; 28 DAA): 63%
AMBEL Obs (common ragweed (AMBEL); 16 DAA): 100%
AMBEL Obs (common ragweed (AMBEL); 31 DAA): 100%
DIGSA Obs (large crabgrass (DIGSA); 16 DAA): 99%
DIGSA Obs (large crabgrass (DIGSA); 31 DAA): 94%
AMARE Obs (redroot pigweed (AMARE); 14 DAA): 100%
AMARE Obs (redroot pigweed (AMARE); 28 DAA): 100%
THLAR Obs (field pennycress (THLAR); 16 DAA): 100%
THLAR Obs (field pennycress (THLAR); 31 DAA): 100%

CCOc1cc(Oc2ccc(C(F)(F)F)cc2Cl)ccc1[N+](=O)[O-] [Oxyfluorfen]
Obs response, scale 0 to 100 (velvetleaf (ABUTH) [4]; 15 g a.i./ha): 43
Obs response, scale 0 to 100 (velvetleaf (ABUTH) [4]; 30 g a.i./ha): 67
Obs response, scale 0 to 100 (velvetleaf (ABUTH) [4]; 60 g a.i./ha): 81

Source: patent US20100285959A1, “HERBICIDAL MIXTURES” (priority 2006, published 2010)
